Assay results taken from patent publication US9315494B2, “Alkyl-amide-substituted pyridyl compounds useful as modulators of IL-12, IL-23 and/or IFNα responses” (Bristol-Myers Squibb Company, priority 2012, dated 2016).
pIC50: −log10 of the molar value. Read-outs that look alike come from different tables or passages of the source.

Legend:
[1] = system: IL-23-stimulated STAT-dependent luciferase reporter in Kit225 T cells; test: Kit225 T cell assay, IL-23 stimulated STAT-dependent luciferase reporter; assay type: cell-based, human
Description: (§1) Kit225 T cells with a stably-integrated STAT-dependent luciferase reporter were plated in RPMI (Gibco) containing 10% heat-inactivated FBS (Gibco) and 100 U/mL PenStrep (Gibco). The cells were then stimulated with either 20 ng/mL human recombinant IL-23 or 200 U/mL human recombinant IFNα (PBL InterferonSource) for 5-6 hours. Luciferase expression was measured using the STEADY-GLO® Luciferase Assay System (Promega) according to the manufacturer's instructions.

[2] = system: IFNα-stimulated STAT-dependent luciferase reporter in Kit225 T cells; test: Kit225 T cell assay, IFNα stimulated STAT-dependent luciferase reporter; assay type: cell-based, human
Description: as §1

[3] = Kit225 T cells, 20 ng/mL human recombinant IL-23, 5-6 hours, luciferase, read-out: IL23 (Kit225 T Cell Inhibition Data)
[4] = Kit225 T cells, 200 U/mL human recombinant IFNα, 5-6 hours, luciferase, read-out: IFNα (Kit225 T Cell Inhibition Data)

Structure (SMILES)	pIC50 [1, 3]	pIC50 [2, 4]	pIC50 ([1]; Homo sapiens, KIT225, read-out: IL23 (Kit225 T Cell Inhibition Data))	pIC50 ([2]; Homo sapiens, KIT225, read-out: IFNα (Kit225 T Cell Inhibition Data))
CNC(=O)c1cnc(Nc2ccc(C(F)(F)F)cn2)cc1Nc1ccccc1S(C)(=O)=O [Example 59]	6.43	6.92	–	–
CNC(=O)c1cnc(Nc2ccc(F)cn2)cc1Nc1ccccc1SC(F)(F)F [Example 210]	5.77	6.07	–	–
CNC(=O)c1cnc(Nc2ccc(F)cn2)cc1Nc1ccc(C#N)cc1S(C)(=O)=O [Example 310]	–	–	5.97	6.23
CNC(=O)c1cnc(Nc2ccc(C(F)(F)F)cn2)cc1Nc1ccccc1C(N)=O [Example 82]	5.91	6.11	–	–
CNC(=O)c1ccnc(Nc2cc(Nc3ccc(Cl)cc3OC)c(C(=O)NC)cn2)c1 [Example 254]	6.31	6.51	–	–
CNC(=O)c1cnc(Nc2ccccn2)cc1Nc1ccc(F)cc1S(C)(=O)=O [Example 299]	6.57	7.05	–	–
CNC(=O)c1cnc(Nc2cc(C)c(F)cn2)cc1Nc1cccc(C(=O)NC2CC2)c1OC [Example 318]	6.89	6.89	–	–
CNC(=O)c1cnc(Nc2cc(C)c(C#N)c(C)n2)cc1Nc1cc(F)cc(F)c1OC [Example 140]	6.55	6.92	–	–
CNC(=O)c1cnc(Nc2cc(C)c(F)cn2)cc1Nc1ccccc1S(C)(=O)=O [Example 60]	7.22	7.40	–	–
CNC(=O)c1cnc(Nc2cccc(C(F)(F)F)n2)cc1Nc1ccc(F)cc1OC [Example 156]	5.78	6.14	–	–
CCS(=O)(=O)c1ccccc1Nc1cc(Nc2ccc(F)cn2)ncc1C(=O)NC [Example 32]	5.66	5.97	–	–
CNC(=O)c1cnc(Nc2cccc(C)n2)cc1Nc1ccccc1C(N)=O [Example 67]	6.58	6.85	–	–
CNC(=O)c1cnc(Nc2cccc(OC)n2)cc1Nc1ccc(F)cc1OC [Example 154]	6.11	6.25	–	–
CNC(=O)c1cnc(Nc2cnccn2)cc1Nc1ccc(F)cc1S(C)(=O)=O [Example 39]	5.83	5.81	–	–
CNC(=O)c1cnc(Nc2ccc(N3CCOCC3)cn2)cc1Nc1ccc(F)cc1O [Example 227]	5.34	5.49	–	–
CCc1ncccc1Nc1cc(Nc2cc(C)nc(C)n2)ncc1C(=O)NC [Example 402]	6.60	6.48	–	–
CNC(=O)c1cnc(Nc2ccc(-n3cc(F)ccc3=O)cn2)cc1Nc1ccc(Cl)cc1OC [Example 106]	6.36	6.74	–	–
CCOc1ccccc1Nc1cc(Nc2ccc(N3CCOCC3)cn2)ncc1C(=O)NC [Example 223]	6.41	6.72	–	–
CNC(=O)c1cnc(Nc2ccc(C#N)cn2)cc1Nc1ccc(F)cc1OCF [Example 162]	6.67	6.34	–	–
CNC(=O)c1cnc(Nc2cnccn2)cc1Nc1ccccc1S(C)(=O)=O [Example 38]	6.26	6.43	–	–
CNC(=O)c1cnc(Nc2ccc(C#N)c(C)n2)cc1Nc1ccccc1C(N)=O [Example 86]	5.74	6.37	–	–
CNC(=O)c1cnc(Nc2cccc(C(F)(F)F)n2)cc1Nc1ccc(Cl)cc1OC [Example 117]	5.70	6.32	–	–
CNC(=O)c1cnc(Nc2ccc(F)cn2)cc1Nc1ccc(CCO)cc1 [Example 191]	5.51	5.45	–	–
CCS(=O)(=O)c1ccccc1Nc1cc(Nc2ccccn2)ncc1C(=O)NC [Example 31]	5.73	5.91	–	–
CNC(=O)c1ccc(Nc2cc(Nc3ccc(F)cn3)ncc2C(=O)NC)c(S(C)(=O)=O)c1 [Example 304]	5.91	6.24	–	–
CNC(=O)c1cnc(Nc2ccc(F)cn2)cc1Nc1ccccc1C1CC1 [Example 185]	5.59	5.54	–	–
CNC(=O)c1cnc(Nc2cc(C)c(C#N)cn2)cc1Nc1ccccc1S(C)(=O)=O [Example 447]	6.70	6.80	–	–
CNC(=O)c1cnc(Nc2ccc(-n3cc(F)ccc3=O)cn2)cc1Nc1ccccc1S(C)(=O)=O [Example 301]	5.50	5.84	–	–
CNC(=O)c1cnc(Nc2cnc(OC)cn2)cc1Nc1ccccc1S(C)(=O)=O [Example 433]	6.54	6.66	–	–

More lines, in order of rising pIC50 [1, 3], values ahead:

pIC50 [1, 3]	pIC50 [2, 4]	Structure (SMILES)	pIC50 ([1]; Homo sapiens, KIT225, read-out: IL23 (Kit225 T Cell Inhibition Data))	pIC50 ([2]; Homo sapiens, KIT225, read-out: IFNα (Kit225 T Cell Inhibition Data))
5.29	5.55	CNC(=O)c1cnc(Nc2ccc(N3CCOCC3)cn2)cc1Nc1c(F)cccc1OC [Example 219]	–	–
5.30	5.22	CNC(=O)c1cnc(Nc2ccc(F)cn2)cc1Nc1ccccc1NC(C)=O [Example 280]	–	–
5.56	5.49	CNC(=O)c1cnc(Nc2cc(C#N)ccn2)cc1Nc1cnccc1OC [Example 179]	–	–
5.62	5.77	CNC(=O)c1cnc(Nc2ccc(F)cn2)cc1Nc1cccc(F)c1S(C)(=O)=O [Example 47]	–	–
5.85	6.15	CNC(=O)c1cnc(Nc2ccc(F)cn2)cc1Nc1ccc(C(=O)N2CCCCC2)cc1C [Example 235]	–	–
6.05	6.18	CNC(=O)c1cnc(Nc2ccc(F)cn2)cc1Nc1cc(F)ccc1OC [Example 199]	–	–
6.20	6.36	CNC(=O)c1cnc(Nc2cc(F)ccn2)cc1Nc1ccc(Cl)cc1OC [Example 115]	–	–
6.20	6.39	CCN(CC)C(=O)c1ccc(Nc2cc(Nc3ccc(F)cn3)ncc2C(=O)NC)c(OC)c1 [Example 240]	–	–
6.21	6.18	CCS(=O)(=O)c1ccccc1Nc1cc(Nc2cc(C#N)ccn2)ncc1C(=O)NC [Example 33]	–	–
6.24	6.22	CNC(=O)c1ccnc(Nc2cc(Nc3ccc(F)c(F)c3OC)c(C(=O)NC)cn2)c1 [Example 257]	–	–
6.32	6.55	CNC(=O)c1cnc(Nc2ccc(-n3ccccc3=O)cn2)cc1Nc1ccc(Cl)cc1OC [Example 98]	–	–
6.53	6.64	CNC(=O)c1cnc(Nc2ccc(F)cn2)cc1Nc1ccc(C(=O)N2CCCCC2)cc1OC [Example 239]	–	–
6.55	6.89	CNC(=O)c1cnc(Nc2cc(C)nc(C)n2)cc1Nc1ccccc1S(C)(=O)=O [Example 300]	–	–
6.59	6.48	CNC(=O)c1cnc(Nc2ccc3cnccc3n2)cc1Nc1ccccc1S(C)(=O)=O [Example 417]	–	–
6.72	6.80	CNC(=O)c1cnc(Nc2ccc(F)cn2)cc1Nc1ccc(-c2ncco2)cc1S(C)(=O)=O [Example 311]	–	–
7.30	7.52	CNC(=O)c1cnc(Nc2cc(C)c(F)cn2)cc1Nc1cccc(C(=O)NC)c1OC [Example 320]	–	–
7.30	7.70	CNC(=O)c1cnc(Nc2cc(C)cc(C)n2)cc1Nc1ccccc1S(C)(=O)=O [Example 443]	–	–
7.52	7.52	CCNC(=O)c1cccc(Nc2cc(Nc3cc(C)c(F)cn3)ncc2C(=O)NC)c1OC [Example 355]	–	–
7.52	7.70	CNC(=O)c1cnc(Nc2cc(C)c(F)cn2)cc1Nc1ccccc1S(C)(=O)=O [Example 432]	–	–
8.36	8.06	[2H]C([2H])([2H])NC(=O)c1cnc(Nc2cc(C)nc(C)n2)cc1Nc1cccc(-c2csc(C)n2)c1OC [Example 404, 6-((2,6-dimethylpyrimidin-4-yl)amino)-4-((2-methoxy-3-(2-methylthiazol-4-yl)phenyl)amino)-N-trideuteromethylnicotinamide]	–	–
